Measured values from patent US5753710A, “Substituted benzyloxycarbonylguanidines, a process for their preparation, their use as a medicament or diagnostic, and a medicament containing them” (Hoechst Aktiengesellschaft, priority 1995, dated 1998).
Structures can show the parent of a compound that is named as a salt.

Target: T1, Na^+ /H^+ exchanger of rabbit erythrocytes (Oryctolagus cuniculus, UniProt P23791)
T1 construct: endogenous in cells; host or cells: erythrocytes in blood of cholesterol-fed New Zealand White rabbits (Ivanovas)
T1 sequence (P23791 whole entry): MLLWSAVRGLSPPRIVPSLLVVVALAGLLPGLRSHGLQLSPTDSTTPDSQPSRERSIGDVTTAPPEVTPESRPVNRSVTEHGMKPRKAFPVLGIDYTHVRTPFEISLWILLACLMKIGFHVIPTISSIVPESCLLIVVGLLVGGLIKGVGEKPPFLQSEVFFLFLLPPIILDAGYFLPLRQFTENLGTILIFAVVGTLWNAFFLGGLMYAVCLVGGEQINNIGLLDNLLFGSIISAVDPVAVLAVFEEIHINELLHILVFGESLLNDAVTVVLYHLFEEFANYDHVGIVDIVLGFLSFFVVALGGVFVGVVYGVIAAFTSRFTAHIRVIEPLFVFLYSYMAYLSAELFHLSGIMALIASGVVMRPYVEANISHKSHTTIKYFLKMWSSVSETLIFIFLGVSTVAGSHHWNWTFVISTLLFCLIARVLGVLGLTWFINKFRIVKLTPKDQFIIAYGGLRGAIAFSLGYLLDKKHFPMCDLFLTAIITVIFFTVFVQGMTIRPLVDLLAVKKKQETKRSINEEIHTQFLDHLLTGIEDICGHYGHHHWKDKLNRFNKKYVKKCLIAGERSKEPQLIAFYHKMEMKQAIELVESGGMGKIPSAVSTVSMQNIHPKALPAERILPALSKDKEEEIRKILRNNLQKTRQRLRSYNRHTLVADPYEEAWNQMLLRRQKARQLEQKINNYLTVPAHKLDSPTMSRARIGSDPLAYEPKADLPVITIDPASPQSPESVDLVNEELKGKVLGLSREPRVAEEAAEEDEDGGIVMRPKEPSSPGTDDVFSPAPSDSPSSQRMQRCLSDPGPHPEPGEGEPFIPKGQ
Assay: Inhibition of the Na^+ /H^+ exchanger of rabbit erythrocytes (amiloride-sensitive Na^+ influx, flame photometry)
Type: cell-based, rabbit (New Zealand White)
Conditions: erythrocytes of rabbits fed 2% cholesterol diet for six weeks; pH 7.4, 37° C.; hyperosmolar salt/sucrose medium
Description: Inhibition of the Na^+ /H^+ exchanger of rabbit erythrocytes
New Zealand White rabbits (Ivanovas) received a standard diet containing 2% cholesterol for six weeks in order to activate the Na^+ /H^+ exchange and thus to be able to determine, by flame photometry, the Na^+ influx into the erythrocytes via Na^+ /H^+ exchange. The blood was removed from the aural arteries and rendered incoagulable using 25 IU of potassium heparin. A part of each sample was used for the duplicate determination of the hematocrit by means of centrifugation. Aliquots of in each case 100 μl were used for measuring the initial Na^+ content of the erythrocytes.
In order to determine the amiloride-sensitive sodium influx, 100 μl of each blood sample were in each case incubated, at pH 7.4 and 37° C., in 5 ml of a hyperosmolar salt/sucrose medium (mmol/l: 140 NaCl, 3 KCl, 150 sucrose, 0.1 ouabain, 20 tris(hydroxymethyl)aminomethane). […] The intracellular sodium content was determined by flame photometry.
The net influx of Na^+ was calculated from the difference between the initial sodium values and the sodium content of the erythrocytes following incubation. The amiloride-inhibitable sodium influx was calculated from the difference in the sodium content of the erythrocytes following incubation with and without amiloride 3×10^-4 mol/l. […]

- IC50: < 1 µM
SMILES: NC(N)=NC(=O)OCc1ccc(Oc2cccnc2)c(C(F)(F)F)c1 [Example 1, 4-(3-Pyridyloxy)-3-trifluoromethyl-benzyloxycarbonylguanidine, dihydrochloride]
